This note sets out measurements from patent US8609100B2, “Method for inhibiting dendritic cell immunoreceptor (DCIR)-mediated human immunodeficiency virus infection comprising administering anti-DCIR antibodies” (Universite Laval, priority 2008, dated 2013).

Series [1] has as its system HIV-1 (NL4-3balenv). Kind of series: HIV-1 transfer assay: virus-pulsed IM-MDDC co-cultured with autologous CD4+ T cells, p24 ELISA. The format is cell-based, human immunodeficiency virus type 1. How it is done:
HIV-1 transfer assay: IM-MDDC (10^5 cells in 100 μl) transfected either with the above listed siRNAs or pre-incubated with polyclonal anti-DCIR (10 μg/1.5×10^5 cells) were exposed to HIV-1 (10 ng of p24) for 60 min at 37° C. Next, the virus-cell mixture was washed three times with PBS to remove unadsorbed virions. In some experiments, cells were also treated with the anti-HIV-1 drug EFV (efavirenz) (50 μM). Finally, IM-MDDC were co-cultured with autologous activated CD4^+ T lymphocytes at a 1:3 ratio in complete RPMI-1640 medium supplemented with IL-2 (30 U/ml) in 96-well plates in a final volume of 200 μl. At day 2, virus production was estimated by measuring p24 levels in cell-free culture supernatants by ELISA.
(§1) We next evaluated the transfer of HIV to autologous CD4^+ T cells. To that effect, IM-MDDC (1×10^6 cells) were treated with Oligofectamine and then either left untreated (control) or exposed to a non-specific siRNA and a DCIR-specific siRNA. Next, cells (1×10^5) were pulsed with NL4-3balenv (10 ng of p24) for 60 min at 37° C. After three washes with PBS to eliminate unbound virus, IM-MDDC were co-cultured with autologous CD4^+ T cells at a 1:3 ratio. Cell-free culture supernatants were collected at day 2 following initiation of the co-culture and analyzed for the p24 content. Data shown in FIG. 3 represent the means±SD of triplicate samples from three combined independent experiments. Asterisks denote statistically significant data (***, P<0.001).
as §1, with “In FIG. 4A,” for “We next evaluated the transfer of HIV to autologous CD4^+ T cells. To that effect,”, “were either left untreated or treated with EFV. IM-MDDC (2×10^5 cells)” for “(1×10^5)”, “(20” for “(10”, “shown” for “shown in FIG. 3”, “two different donors and are representative of four separate donors.” for “three combined independent experiments.”, “(*, P<0.05, **, P<0.01).” for “(***, P<0.001).”
In FIG. 5 left panels, IM-MDDC (2×10^5 cells) were initially treated with either a control Ab or a polyclonal anti-DCIR (10 μg per 1.5×10^5 cells). Next, cells were extensively washed to eliminate excess Ab and pulsed with NL4-3balenv (20 ng of p24) for 2 hrs at 37° C. […] Cell-free culture supernatants were collected at the indicated time points and analyzed for the p24 content. […] Cell-free culture supernatants were collected at day 2 following initiation of the co-culture and analyzed for the p24 content. […]
For orientation: ELISA stands for enzyme-linked immunosorbent assay.

The test system of the next series is DC-SIGN. Briefly: DC-SIGN expression in IM-MDDC after DCIR-specific siRNA. The format is cell-based, human. The following applies: IM-MDDC transfected with siRNA; data not shown. The text has this: (§2) A ˜30% decrease in surface expression of DCIR in IM-MDDC was observed following the use of DCIR-specific siRNA (FIG. 2).
The test system of the next series is DCIR. Kind of series: DCIR surface expression in siRNA-transfected IM-MDDC by flow cytometry. The following applies: 40 hrs after siRNA transfection, FIG. 2. The format is cell-based, human. How it is done: Flow cytometric analysis: Cell surface expression of DCIR was monitored by flow cytometric analysis with a flow cytometry apparatus (Epics ELITE ESP, Coulter Electronics, Burlington, ON). Before staining, cells were incubated for 15 min at 4° C. with 10% pooled human sera to block non-specific binding sites and washed once with phosphate buffered saline (PBS) supplemented with 0.5% bovine serum albumin (BSA). Next, cells were incubated for 45 min at 4° C. with anti-DCIR (0.25 μg) monoclonal Ab and then washed twice with PBS and 0.5% BSA. Non-specific staining was determined by using an isotype-matched irrelevant control Ab. After two final washes with PBS, cells were fixed in 2% paraformaldehyde and analyzed.
Gene silencing of DCIR with siRNAs: Small interfering RNAs (siRNAs) either specific (i.e. 5′-ATTTAGGTGGTCTGTCA-3′; [SEQ ID NO:11]) or non-specific for DCIR (i.e. 5′-[…]-3′; [SEQ ID NO:45]) were obtained from Qiagen and dissolved in an appropriate buffer. The studied siRNAs were subsequently tested in IM-MDDC as previously described 2. Control cells were treated with either Oligofectamine alone or Oligofectamine and non-specific siRNAs. […] The efficiency of DCIR silencing with the tested siRNA was monitored by flow cytometry.
We thus employed RNA interference to reduce DCIR expression in IM-MDDC and analyzed the possible effect on HIV-1 transfer. […]

Series [2] has as its system HIV-1 (NL4-3balenv). Briefly: HIV-1 infection of IM-MDDC: virus production by p24 ELISA. The format is cell-based, human immunodeficiency virus type 1. The following applies: siRNA-transfected IM-MDDC pulsed with NL4-3balenv 20 ng p24 for 2 hrs; FIG. 4C. How it is done:
HIV-1 infection of IM-MDDC: IM-MDDC (2×10^5 cells in a final volume of 100 μl) either transfected with the studied siRNAs or pre-incubated with the above mentioned polyclonal anti-DCIR were exposed to HIV-1 (20 ng of p24) for 2 hr at 37° C. After three washes with PBS, cells were maintained in complete RPMI-1640 culture medium supplemented with GM-CSF (1,000 U/ml) and IL-4 (200 U/ml) in 96-well plates in a final volume of 200 μl. Every 3 days and for a period lasting 9 days, half of the medium was removed and kept frozen at −20° C. until assayed. Virus production was estimated by measuring p24 levels in culture supernatants by ELISA. […]
In FIG. 4C, IM-MDDC were treated with Oligofectamine and then either left untreated (control) or exposed to a non-specific siRNA and a DCIR-specific siRNA. […] Cell-free culture supernatants were collected at the indicated time points and analyzed for the p24 content. […]
In FIG. 5 left panels, IM-MDDC (2×10^5 cells) were initially treated with either a control Ab or a polyclonal anti-DCIR (10 μg per 1.5×10^5 cells). […] Cell-free culture supernatants were collected at the indicated time points and analyzed for the p24 content. […] Cell-free culture supernatants were collected at day 2 following initiation of the co-culture and analyzed for the p24 content. […]

The test system of the next series is IM-MDDC. The series is classed as cell-based, human.
Source text: as §2

As for `O=C1Nc2ccc(Cl)cc2[C@@](C#CC2CC2)(C(F)(F)F)O1` [EFV, efavirenz, reference compound], the “effect on HIV-1 propagation (virus transfer)” value in the series on HIV-1 (NL4-3balenv) [1] (EFV 50 μM added to IM-MDDC, FIG. 4A) is “limited effect”.
On to “DCIR-specific siRNA: siRNA specific for DCIR, 5′-ATTTAGGTGGTCTGTCA-3′ [SEQ ID NO:11], obtained from Qiagen (chemistry not given here)”, for which the DC-SIGN expression entry with DC-SIGN is reported as “not affected”. Besides, in the series with DCIR, the “decrease in surface expression of DCIR in IM-MDDC” value is recorded as approximately 30%. Besides, the “reduction in virus transfer (average diminution)” value with HIV-1 (NL4-3balenv) [1] (cells treated with EFV (50 μM), NL4-3balenv 20 ng p24, co-culture day 2, FIG. 4A) is recorded as 40%. Further, the “reduction in virus transfer (average decrease)” value in the series on HIV-1 (NL4-3balenv) [1] (in absence of EFV, NL4-3balenv 20 ng p24, co-culture day 2, FIG. 4A) turned out to be 30%. The “transfer of HIV-1 from IM-MDDC to autologous CD4+ T cells (p24 content)” value with HIV-1 (NL4-3balenv) [1] (siRNA-transfected IM-MDDC pulsed with NL4-3balenv 10 ng p24 for 60 min, co-culture 1:3, day 2, FIG. 3) is “reduced significantly”. Further, in the series on HIV-1 (NL4-3balenv) [2], the “de novo virus production in IM-MDDC (p24)” value was “decrease”. Also, the cells viability entry in the series on IM-MDDC is on record as “minimally affected”.
